Columns and labels:
[1] = accelerated stability of ascorbic acid in eye drop formulations (UV-VIS, 260 nm); format: physicochemical; details: stored at 40° C. for 30 days; pH 3.5 vs pH 5
Protocol: (§1) Namely, appropriate amounts of the various components were weighed and then mixed with “Water for Injection” (WFI) at room temperature in a laminar flow hood to achieve the concentrations listed in Table 1. The various components were dissolved in the WFI using a magnetic stir bar and stirring at 350 rpm, or any appropriate mixing speed, until dissolution was complete. The final pH of each formulation was adjusted to pH 3.5 or pH 5.0, as listed in Table 1, using 5N HCl or 5N NaOH, respectively. The resulting solutions were then passed through a 0.21, […] filter while filling sterile vials with the respective formulations for use in stability studies. […]
(§2) At each point in the testing schedule, physical properties, such as clarity, color, odor, particle count and the like, of the formulations stored in the pulled vials were examined by physical observation. Concentrations of the antioxidants were also measured, and analytical tests of the formulations in the vials were carried out according to the protocol listed in Table 3.
(§3) The analytical assay method for stability testing of total thiols and ascorbic acid in eyedrop formulations (UV-VIS in Table 3) are performed as follows. […] Both components are measured on one sample preparation. […] By applying the appropriate dilution and conversion factors, the concentration of each component in the formulation can be calculated. […]

[2] = accelerated stability of glutathione (total thiols) in eye drop formulations (UV-VIS with DTNB, 412 nm); format: physicochemical; details: stored at 40° C. for 30 days
Protocol: as §1, §2, §3

Row | SMILES | stability of ascorbic acid [1] | effect of higher molar ratios of ascorbic acid on glutathione stability [2]
1 | O=C1O[C@H]([C@@H](O)CO)C(O)=C1O [ascorbic acid, L-ascorbic acid] | more stable at the lower pH of 3.5 compared to pH 5 | 
2 | N[C@@H](CCC(=O)N[C@@H](CS)C(=O)NCC(=O)O)C(=O)O [glutathione, L-glutathione] |  | destabilizing effect of higher molar ratios of ascorbic acid on glutathione

Reference: patent US20260315565A1, “ANTIOXIDANT-CONTAINING EYE DROP FORMULATIONS AND METHODS OF PREVENTION AND/OR TREATMENT USING SAME” (Marizyme, Inc., priority 2022, published 2026)
